“And” between values parts separate entries of the source, which are not always exact repeats. Identical values can stand only once.
System: 439559-082-T-J2-PDC spheroids viability
Assay: Anticancer human tumor 439559-082-T-J2-PDC patient-derived colon adenocarcinoma cell line growth inhibition [GQUAD]
Settings: for viability, T/C: stronger effect = lower value
Text: DNA G-quadruplex Stabilizer Agents in Combinations in Complex Spheroids
A high-throughput screen of multi-cell type tumor spheroids was designed to identify active combinations of DNA G-quadruplex stabilizer agents and targeted small molecules. Complex spheroids include a stromal component modeled by human endothelial cells (HUVEC) and fibroblasts modeled by human mesenchymal stem cells (MSCs). The concentration ranges selected for each drug and investigational agent were based upon clinically achievable concentrations if the clinical Cmax of the agent was known.
Compounds. The drugs and investigational agents: pidnarulex (CX-5461; NSC782164), APTO-253 (NSC789042), BRACO-19 (NSC847499), peposertib (NSC802822), ceralasertib (NSC780249), elimusertib (NSC800525), camonsertib (NSC841442), AZD-1390 (NSC803789), olaparib (NSC753686), talazoparib (NSC767125), ART-558 (NSC835418), sotorasib (NSC818433), MRTX-1133 (NSC836407), SN-38 (NSC673596), topotecan (NSC609699), etoposide (NSC141540), doxorubicin (NSC123127), gemcitabine (NSC613327), 5-fluorouracil (NSC19893), paclitaxel (NSC125973), vemurafenib (NSC761431), panobinostat (NSC761190), R-306465 (JNJ-16241199; NSC773264), adavosertib (NSC754352), TP-3654 (NSC805149), carboplatin (NSC241240), KSQ-4279 (NSC840948), and staurosporine (NSC755774) were obtained from the National Cancer Institute (NCI) Developmental Therapeutics Program Chemical Repository (34). The FDA-approved anticancer drug set is available from the NCI Developmental Therapeutics Program. […] The stock solutions were prepared in dimethyl sulfoxide (DMSO, Sigma-Aldrich, St. Louis, MO, cat. D2650) at 800-fold the tested concentration and stored at -70 degrees C prior to their use. All drugs and investigational agents were tested over a range starting from a high concentration at or near the clinical Cmax and decreasing in half-log increments. If the clinical Cmax for an agent had not been determined, the highest concentration tested was 10 microM.
2.3 Cell Culture. All cells were maintained in an incubator at 37 degrees C and 5% CO2 with 95% humidity. The PDC lines were cultured according to standard operating procedures established by the NCI PDMR. All PDCs were thawed and cultured in Matrigel-coated flasks prepared with a working solution of 1X Ham's F-12 nutrient mix, without supplementation (Invitrogen, cat. 11765054), 100 U/mL penicillin-streptomycin (Invitrogen, cat. 15140122), and 2.5% Matrigel (Corning Inc., cat. 354248) for the first three passages. The 857933-349-R-J2-PDC line was cultured in 6C/Colon 1B media, which includes advanced DMEM/F-12 (Thermo Fisher Scientific, cat. 12634028), 10 mM HEPES (Thermo Fisher Scientific, cat. 15630080), 1X GlutaMAX supplement (Thermo Fisher Scientific, cat. 35050061), 0.1 mg/mL primocin (InvivoGen, cat. ant-pm-2), 10% defined fetal bovine serum, heat inactivated (HyClone Laboratories Inc., cat. SH30070.03HI), 50% L-WRN conditioned media (ATCC, cat. CRL-3276), 1.25 mM N-Acetyl-L-cysteine (Sigma-Aldrich, cat. A9165), 10 mM nicotinamide (Sigma-Aldrich, cat. N0636), 1X B-27 supplement (Thermo Fisher Scientific, cat. 17504044), 1X N-2 supplement (Thermo Fisher Scientific, cat. 17502048), 10 microM Y-27632 dihydrochloride (Tocris Bioscience, cat. 1254), and 50 ng/mL human EGF recombinant protein (Thermo Fisher Scientific, cat. PHG0311). The 485176-168-R4-J1-PDC line was cultured in Panc media, which includes all 6C/Colon 1B media components plus 100 ng/mL human FGF-10 (Thermo Fisher Scientific, cat. 100-26), 500 nM SB-431542 (Selleckchem, cat. S1067), and gastrin (Tocris, cat. 3006).
[…]
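Also: spheroids exposed to the agents for 7 days before readout.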
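For viability, T/C in this document: percent of luminescence signal in DMSO vehicle wells taken as 100% viability.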

Row | Structure (SMILES) | IC50 (curve of compound) | IC50 (compound alone, run of 04/22/2024) | viability, T/C (compound 0.0316 µM) | viability, T/C (compound 0.1 µM) | viability, T/C (compound 0.316 µM) | viability, T/C (compound 1 µM) | viability, T/C (compound 3.16 µM) | viability, T/C (compound 10 µM) | viability, T/C (compound 0.000999 µM) | viability, T/C (compound 0.00316 µM) | viability, T/C (compound 0.00999 µM) | viability, T/C (compound 0.0999 µM)
1 | CC1COCCN1c1cc(C2(O)CC3CCC(C2)O3)c2cnn(-c3ccn[nH]3)c2n1 (stereo unspecified) | 1030 nM and 1520 nM | – | 88.9% and 93.8% and 110% | 94.8% and 93.7% and 78.8% | 68.1% and 75.7% and 73.3% | 52.4% and 55.8% and 50.7% | 39% and 40.9% and 32.5% | 33.2% and 39.8% and 28.5% | – | – | – | –
2 | CC1COCCN1c1cc(C2(S(C)(=N)=O)CC2)nc(-c2ccnc3[nH]ccc23)n1 (stereo unspecified) | > 10000 nM | – | 97.7% and 98.8% and 96.5% | 111% and 89.2% and 102% | 93.4% and 106% and 88.7% | 101% and 86.2% and 94% | 92.3% and 87.4% and 80.1% | 68.4% and 57.7% and 60.7% | – | – | – | –
3 | CC[C@@]1(O)C(=O)OCc2c1cc1n(c2=O)Cc2cc3c(CN(C)C)c(O)ccc3nc2-1 | > 316 nM | – | 84.6% and 98% and 89.7% | – | 79% and 81.7% and 75.3% | – | – | – | 95.3% and 92.3% and 106% | 105% and 96.2% and 94.6% | 96% and 97.9% and 95.6% | 88.7% and 87.6% and 101%
4 | CCc1c2c(nc3ccc(O)cc13)-c1cc3c(c(=O)n1C2)COC(=O)[C@]3(O)CC | 272 nM and 229 nM and 115 nM | – | 71.1% and 81.8% and 69.5% | – | 47.6% and 44.7% and 36.1% | – | – | – | 92.9% and 101% and 105% | 88.5% and 90.5% and 87.7% | 78.4% and 78.2% and 84.3% | 61.7% and 59.3% and 49.4%

The next lines start with results.

Row | IC50 (curve of compound) | IC50 (compound alone, run of 04/22/2024) | Structure (SMILES) | viability, T/C (compound 0.0316 µM) | viability, T/C (compound 0.1 µM) | viability, T/C (compound 0.316 µM) | viability, T/C (compound 1 µM) | viability, T/C (compound 3.16 µM) | viability, T/C (compound 10 µM) | viability, T/C (compound 0.000999 µM) | viability, T/C (compound 0.00316 µM) | viability, T/C (compound 0.00999 µM) | viability, T/C (compound 0.0999 µM)
5 | 3430 nM and > 10000 nM | – | CCCS(=O)(=O)Nc1ccc(F)c(C(=O)c2c[nH]c3ncc(-c4ccc(Cl)cc4)cc23)c1F | 96.1% and 95.7% and 105% | 90.8% and 96.3% and 99.1% | 94.7% and 102% and 103% | 71.9% and 107% and 96.1% | 53.8% and 108% and 106% | 20.2% and 54.8% and 54.9% | – | – | – | –
6 | – | > 10000 nM | CN(C)c1ccc(Nc2c3ccc(NC(=O)CCN4CCCC4)cc3nc3cc(NC(=O)CCN4CCCC4)ccc23)cc1 | 103% [middle of 12 runs] | 99.9% [middle of 12 runs] | 101% [middle of 12 runs] | – | 104% [middle of 12 runs] | 101% [middle of 12 runs] | – | – | – | –
